The subject of data set [1] is Sprague Dawley (SD) rats. Nature of the data set: ASSAY (I) efficacy testing on appetite (food intake) using an ad libitum fed rat model. The data set is classed as in vivo. As to conditions: rat. In outline: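 Individual food consumption was logged each hour up to 7 h and again at 24 h, occasionally 48 h, with Grubbs-test outliers removed. Each 200–250 g Sprague Dawley rat, free-feeding in its home cage under reversed lighting, received a single ip, po or sc dose of 0.01–3 mg/kg at lights-off, alongside a vehicle group.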

A short description of data set [2]: ASSAY (IV) determination of solubility. The data set is classed as physicochemical. In outline:
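Solubility measured by UPLC of supernatant after centrifugation, following 18 h at room temperature. Peptide ([…] in water) was diluted 1:1 into 100 mM glycylglycine (pH 3.0, 4.0, 5.0) or bistrispropane (pH 6.0-8.0).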

In data set [3] the target is T1, human amylin receptor (membranes from Amylin 3(a)/CRE-luc cells) (Homo sapiens, UniProt O60896+P30988).
T1 construct: expressed in transfected cells
T1 sequence (P30988 25-474): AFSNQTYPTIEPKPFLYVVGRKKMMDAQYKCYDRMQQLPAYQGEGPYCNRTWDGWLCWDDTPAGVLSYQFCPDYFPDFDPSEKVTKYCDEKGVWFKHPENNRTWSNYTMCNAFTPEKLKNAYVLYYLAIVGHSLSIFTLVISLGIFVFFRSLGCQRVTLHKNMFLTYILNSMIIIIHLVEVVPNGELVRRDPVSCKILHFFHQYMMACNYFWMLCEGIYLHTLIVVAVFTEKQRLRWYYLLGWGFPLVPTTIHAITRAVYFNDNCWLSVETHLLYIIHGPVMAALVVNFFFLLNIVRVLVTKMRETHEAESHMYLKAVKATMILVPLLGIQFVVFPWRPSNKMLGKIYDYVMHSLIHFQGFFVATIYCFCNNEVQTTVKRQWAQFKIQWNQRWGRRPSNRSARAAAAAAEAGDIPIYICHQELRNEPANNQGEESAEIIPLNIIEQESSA
T1 sequence (O60896 24-148 partner): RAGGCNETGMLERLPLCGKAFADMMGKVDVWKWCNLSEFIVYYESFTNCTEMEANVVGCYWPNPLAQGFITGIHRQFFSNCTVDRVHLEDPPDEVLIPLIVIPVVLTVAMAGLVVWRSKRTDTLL
Nature of the data set: ASSAY (V) binding to the human amylin receptor (SPA, 125I-rat amylin).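 Also: competition binding of cell membranes (35 ng/µL) mixed with SPA beads in 384-well plates at 40 µL total volume, read by scintillation counting.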

The target in data set [4] is T2, rat calcitonin receptor (Rattus norvegicus, UniProt P32214).
T2 construct: expressed in transfected cells; host or cells: BHK tk'ts 13 (transient, FuGENE 6), membranes
T2 sequence (P32214 25-479 isoform P32214-2 limits assumed): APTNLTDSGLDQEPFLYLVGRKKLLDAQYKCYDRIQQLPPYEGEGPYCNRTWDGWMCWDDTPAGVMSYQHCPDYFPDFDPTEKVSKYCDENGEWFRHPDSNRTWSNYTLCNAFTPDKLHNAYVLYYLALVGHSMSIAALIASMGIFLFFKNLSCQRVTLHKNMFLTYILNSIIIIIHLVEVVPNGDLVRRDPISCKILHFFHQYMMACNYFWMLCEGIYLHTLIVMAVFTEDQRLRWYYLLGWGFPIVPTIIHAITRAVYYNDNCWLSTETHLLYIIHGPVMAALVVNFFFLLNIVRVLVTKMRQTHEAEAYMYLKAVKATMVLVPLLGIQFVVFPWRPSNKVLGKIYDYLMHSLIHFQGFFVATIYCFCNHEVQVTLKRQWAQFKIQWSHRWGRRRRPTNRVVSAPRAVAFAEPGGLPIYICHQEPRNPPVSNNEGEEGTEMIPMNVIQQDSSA
The data set can be described thus: ASSAY (VIII) binding to the rat calcitonin receptor. The conditions noted are these: Table 7, read-out: rCTR bind IC50. In outline:
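BHK tk′ts 13 cells, transient rat calcitonin receptor transfection; DMEM + 10% FBS; harvest ~48 h post-transfection; membrane prep.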

Setting [5] is: bistrispropane buffer, pH 6.5, read-out: Solubility pH 6.5 Concentration.
The mark [6] stands for this setting: bistrispropane buffer, pH 7.5, read-out: Solubility pH 7.5 Concentration.
Setting [7] is: bistrispropane buffer, pH 6.0, read-out: Solubility pH 6.0 Concentration.
Where [8] appears, read: bistrispropane buffer, pH 7.0, read-out: Solubility pH 7.0 Concentration.
Where [9] appears, read: bistrispropane buffer, pH 8.0, read-out: Solubility pH 8.0 Concentration.
Where [10] appears, read: glycylglycine buffer, pH 3.0, read-out: Solubility pH 3.0 Concentration.
Setting [11] is: glycylglycine buffer, pH 4.0, read-out: Solubility pH 4.0 Concentration.
Where [12] appears, read: glycylglycine buffer, pH 5.0, read-out: Solubility pH 5.0 Concentration.
[13] abbreviates: Table 5, selectivity, hCTR bind IC50 / hAmylin-R bind IC50.
Where [14] appears, read: Table 5a, selectivity, hCTR bind IC50 / hAmylin-R bind IC50.
The mark [15] stands for this setting: Table 5b, selectivity, hCTR bind IC50 / hAmylin-R bind IC50.
The mark [16] stands for this setting: Table 5c, selectivity, hCTR bind IC50 / hAmylin-R bind IC50.
The mark [17] stands for this setting: Table 7, human binding selectivity, included for comparison.
The mark [18] stands for this setting: Table 7a (preferred compounds), human binding selectivity, included for comparison.
[19] abbreviates: ratio of human calcitonin receptor binding IC50 to human amylin receptor binding IC50.

Values after ≈ are worked out from the molar mass of the structure shown. Where two headings read alike, the source gives them in different places. Numbered stars: 1 amine (or outer) side, 2 acyl side, 3 side chain; on linkers, the order of the positions; unused ones are H or OH. Bridge positions count the residues as written; N and C are the ends. Side chains are listed from the residue outwards. Peptide text beside a SMILES is read from it. * marks the point of attachment. C20 diacid = O=C(O)CCCCCCCCCCCCCCCCCCC(=O)*; γGlu = O=C(O)[C@H](CCC(=O)[*:2])N[*:1]

These results are taken from patent US9023789B2, “Amylin analogs and pharmaceutical compositions thereof” (Novo Nordisk A/S, priority 2012, dated 2015).

The IC50 is the midpoint of a concentration-inhibition curve. Take `CC[C@H](C)[C@H](NC(=O)[C@H](C)NC(=O)CNC(=O)[C@H](Cc1ccccc1)NC(=O)[C@H](CC(N)=O)NC(=O)[C@@H]1CCCN1C(=O)[C@H](CO)NC(=O)[C@H](CO)NC(=O)[C@H](Cc1c[nH]cn1)NC(=O)[C@H](CCCNC(=N)N)NC(=O)[C@H](CC(C)C)NC(=O)[C@H](Cc1ccccc1)NC(=O)[C@H](CCC(=O)O)NC(=O)[C@H](C)NC(=O)[C@H](CC(C)C)NC(=O)[C@H](CCCNC(=N)N)NC(=O)[C@H](CCC(N)=O)NC(=O)[C@@H](NC(=O)[C@H](C)NC(=O)[C@@H]1CSSC[C@H](NC(=O)[C@@H](N)CCCCNC(=O)CC[C@H](NC(=O)CCCCCCCCCCCCCCCCCCC(=O)O)C(=O)O)C(=O)N[C@@H](CC(N)=O)C(=O)N[C@@H]([C@@H](C)O)C(=O)N[C@@H](C)C(=O)N[C@@H]([C@@H](C)O)C(=O)N1)[C@@H](C)O)C(=O)N1CCC[C@H]1C(=O)N[C@@H](CO)C(=O)N[C@@H](CO)C(=O)N[C@H](C(=O)N[C@@H](CC(N)=O)C(=O)N[C@H](C(=O)NCC(=O)N1CCC[C@H]1C(=O)N[C@@H](Cc1c[nH]cn1)C(=O)N[C@H](C(=O)N[C@@H](Cc1ccc(O)cc1)C(N)=O)[C@@H](C)O)C(C)C)[C@@H](C)O` [Example 118] (H-K([γGlu-C20 diacid])CNTATCATQRLAEFLRHSSPNFGAIPSSTNVGPHTY-NH2; disulfide 2-7): the “Food intake reduction 0-24 h 3 nmol/kg (%)” value in data set [1] (3 nmol/kg, 0-24 h) is reported as 43%. Moreover, the “Food intake reduction 24-48 h 3 nmol/kg (%)” value in data set [1] (3 nmol/kg, 24-48 h) is 1%. Further, the “Food intake reduction 0-24 h 30 nmol/kg (%)” value in data set [1] (0-24 h) is recorded as 77%. The “Food intake reduction 24-48 h 30 nmol/kg (%)” value in data set [1] (24-48 h) amounted to 30%. The solubility at 18 h in data set [2] (setting [5]), in data set [2] (setting [6]), in data set [2] (setting [7]), in data set [2] (setting [8]), in data set [2] (setting [9]) and in data set [2] (setting [10]) was no less than 200 µM in each case. Moreover, the solubility at 18 h in data set [2] (setting [11]) and in data set [2] (setting [12]) was no less than 200 µM in each case. Also, the “Ratio hCT/hAmylin binding” value in data set [3] (setting [13]), in data set [3] (setting [14]), in data set [3] (setting [15]), in data set [3] (setting [16]), in data set [3] (setting [17]) and in data set [3] (setting [18]) was 21.2 each time. In data set [3] (setting [19]), the “Ratio hCT/hAmylin binding” value came out at 21.2. Moreover, the 50% inhibitory concentration (IC50) in data set [4] was determined as 5.43 nM.
On to `CC[C@H](C)[C@H](NC(=O)[C@H](C)NC(=O)CNC(=O)[C@H](Cc1ccccc1)NC(=O)[C@H](CC(N)=O)NC(=O)[C@@H]1CCCN1C(=O)[C@H](CO)NC(=O)[C@H](CO)NC(=O)[C@H](Cc1c[nH]cn1)NC(=O)[C@H](CCCNC(=N)N)NC(=O)[C@H](CC(C)C)NC(=O)[C@H](Cc1ccccc1)NC(=O)[C@H](CC(N)=O)NC(=O)[C@H](C)NC(=O)[C@H](CC(C)C)NC(=O)[C@H](CCCNC(=N)N)NC(=O)[C@H](CCC(N)=O)NC(=O)[C@@H](NC(=O)[C@H](C)NC(=O)[C@@H]1CSSC[C@H](NC(=O)[C@H](CCCNC(=N)N)NC(=O)CNC(=O)CC[C@H](NC(=O)CCCCCCCCCCCCCCCCCCC(=O)O)C(=O)O)C(=O)N[C@@H](CC(N)=O)C(=O)N[C@@H]([C@@H](C)O)C(=O)N[C@@H](C)C(=O)N[C@@H]([C@@H](C)O)C(=O)N1)[C@@H](C)O)C(=O)N1CCC[C@H]1C(=O)N[C@@H](CO)C(=O)N[C@@H](CO)C(=O)N[C@H](C(=O)N[C@@H](CC(N)=O)C(=O)N[C@H](C(=O)NCC(=O)N[C@@H](CO)C(=O)N[C@@H](Cc1c[nH]cn1)C(=O)N[C@H](C(=O)N[C@@H](Cc1ccc(O)cc1)C(N)=O)[C@@H](C)O)C(C)C)[C@@H](C)O` [Example 47] ({C20 diacid-γGlu}-GRCNTATCATQRLANFLRHSSPNFGAIPSSTNVGSHTY-NH2; disulfide 3-8), for which the “Food intake reduction 0-24 h 30 nmol/kg (%)” value in data set [1] (0-24 h) was 51%. In addition, the “Food intake reduction 24-48 h 30 nmol/kg (%)” value in data set [1] (24-48 h) was 0%. Moreover, the solubility at 18 h is no less than 200 µM in data set [2] (setting [5]); 50 µM (≈ 224 µg/mL) in data set [2] (setting [6]); no less than 200 µM in data set [2] (setting [7]); no less than 200 µM in data set [2] (setting [8]); 68 µM (≈ 305 µg/mL) in data set [2] (setting [9]); no less than 200 µM in data set [2] (setting [10]). Besides, the solubility at 18 h in data set [2] (setting [11]) and in data set [2] (setting [12]) was no less than 200 µM in each case. The “Ratio hCT/hAmylin binding” value in data set [3] (setting [13]), in data set [3] (setting [14]), in data set [3] (setting [15]), in data set [3] (setting [16]), in data set [3] (setting [17]) and in data set [3] (setting [18]) was 44.9 each time. Besides, the “Ratio hCT/hAmylin binding” value in data set [3] (setting [19]) is listed as 44.9. Moreover, the IC50 in data set [4] is 17.1 nM.
Consider `CC[C@H](C)[C@H](NC(=O)[C@H](C)NC(=O)CNC(=O)[C@H](Cc1ccccc1)NC(=O)[C@H](CC(N)=O)NC(=O)[C@@H]1CCCN1C(=O)[C@H](CO)NC(=O)[C@H](CO)NC(=O)[C@H](Cc1c[nH]cn1)NC(=O)[C@H](CCCNC(=N)N)NC(=O)[C@H](CC(C)C)NC(=O)[C@H](Cc1ccccc1)NC(=O)[C@H](Cc1c[nH]cn1)NC(=O)[C@H](C)NC(=O)[C@H](CC(C)C)NC(=O)[C@H](CCCNC(=N)N)NC(=O)[C@H](CCC(N)=O)NC(=O)[C@@H](NC(=O)[C@H](C)NC(=O)[C@@H]1CSSC[C@H](NC(=O)[C@@H](N)CCCCNC(=O)CC[C@H](NC(=O)CCCCCCCCCCCCCCCCCCC(=O)O)C(=O)O)C(=O)N[C@@H](CC(N)=O)C(=O)N[C@@H]([C@@H](C)O)C(=O)N[C@@H](C)C(=O)N[C@@H]([C@@H](C)O)C(=O)N1)[C@@H](C)O)C(=O)N1CCC[C@H]1C(=O)N[C@@H](CO)C(=O)N[C@@H](CO)C(=O)N[C@H](C(=O)N[C@@H](CC(N)=O)C(=O)N[C@H](C(=O)NCC(=O)N1CCC[C@H]1C(=O)N[C@@H](CC(N)=O)C(=O)N[C@H](C(=O)N[C@@H](Cc1ccc(O)cc1)C(N)=O)[C@@H](C)O)C(C)C)[C@@H](C)O` [Example 67] (H-K([γGlu-C20 diacid])CNTATCATQRLAHFLRHSSPNFGAIPSSTNVGPNTY-NH2; disulfide 2-7 (inferred); N-terminus assumed), for which the “Food intake reduction 0-24 h 30 nmol/kg (%)” value in data set [1] (0-24 h) was determined as 47%. For the same molecule, the “Food intake reduction 24-48 h 30 nmol/kg (%)” value in data set [1] (24-48 h) is 0%. In addition, the solubility at 18 h in data set [2] (setting [5]) is no less than 200 µM; in data set [2] (setting [6]), no less than 200 µM; in data set [2] (setting [7]), no less than 200 µM; in data set [2] (setting [8]) it was no less than 200 µM; in data set [2] (setting [9]), 178 µM (≈ 786 µg/mL); in data set [2] (setting [10]), no less than 200 µM. In addition, the solubility at 18 h in data set [2] (setting [11]) and in data set [2] (setting [12]) was no less than 200 µM in each case. For the same molecule, the “Ratio hCT/hAmylin binding” value in data set [3] (setting [13]), in data set [3] (setting [14]), in data set [3] (setting [15]), in data set [3] (setting [16]), in data set [3] (setting [17]) and in data set [3] (setting [18]) was 51.6 each time. In addition, the “Ratio hCT/hAmylin binding” value in data set [3] (setting [19]) was determined as 51.6. Besides, the IC50 in data set [4] was 14.7 nM.
